According to patent publication US20060079566A1, “PDK-1/Akt signaling inhibitors” (priority 2003, published 2006):

How the values were obtained:
RPMI-8226 = test: NCI DTP screen (SRB), Leukemia; type: cell-based; details: Homo sapiens
Protocol: (§1) Screening of compounds 70 and 71 against several cancer cell lines The human tumor cell lines of the cancer screening panel are grown in RPMI 1640 medium containing 5% fetal bovine serum and 2 mM L-glutamine. For a typical screening experiment, cells are inoculated into 96 well microtiter plates in 100 μL at plating densities ranging from 5,000 to 40,000 cells/well depending on the doubling time of individual cell lines. After cell inoculation, the microtiter plates are incubated at 37° C., 5% CO2, 95% air and 100% relative humidity for 24 h prior to addition of experimental drugs.
(§2) After 24 h, two plates of each cell line are fixed in situ with TCA, to represent a measurement of the cell population for each cell line at the time of drug addition (Tz). Experimental drugs are solubilized in dimethyl sulfoxide at 400-fold the desired final maximum test concentration and stored frozen prior to use. At the time of drug addition, an aliquot of frozen concentrate is thawed and diluted to twice the desired final maximum test concentration with complete medium containing 50 μg/ml gentamicin. Additional four, 10-fold or ½ log serial dilutions are made to provide a total of five drug concentrations plus control. Aliquots of 100 μl of these different drug dilutions are added to the appropriate microtiter wells already containing 100 μl of medium, resulting in the required final drug concentrations.
(§3) Following drug addition, the plates are incubated for an additional 48 h at 37° C., 5% CO2, 95% air, and 100% relative humidity. For adherent cells, the assay is terminated by the addition of cold TCA. Cells are fixed in situ by the gentle addition of 50 μl of cold 50% (w/v) TCA (final concentration, 10% TCA) and incubated for 60 minutes at 4° C. The supernatant is discarded, and the plates are washed five times with tap water and air dried. Sulforhodamine B (SRB) solution (100 μl) at 0.4% (w/v) in 1% acetic acid is added to each well, and plates are incubated for 10 minutes at room temperature. After staining, unbound dye is removed by washing five times with 1% acetic acid and the plates are air dried. Bound stain is subsequently solubilized with 10 mM trizma base, and the absorbance is read on an automated plate reader at a wavelength of 515 nm. For suspension cells, the methodology is the same except that the assay is terminated by fixing settled cells at the bottom of the wells by gently adding 50 μl of 80% TCA (final concentration, 16% TCA). Using the seven absorbance measurements [time zero, (Tz), control growth, (C), and test growth in the presence of drug at the five concentration levels (Ti)], the percentage growth is calculated at each of the drug concentrations levels. Percentage growth inhibition is calculated as: [(Ti−Tz)/(C−Tz)]×100 for concentrations for which Ti>/=Tz [(Ti−Tz)/Tz]×100 for concentrations for which Ti<Tz
(§4) Three dose response parameters are calculated for each experimental agent. […] The drug concentration resulting in total growth inhibition (TGI) is calculated from Ti=Tz. […] Values are calculated for each of these three parameters if the level of activity is reached; however, if the effect is not reached or is exceeded, the value for that parameter is expressed as greater or less than the maximum or minimum concentration tested.

SR = test: NCI DTP screen (SRB), Leukemia; type: cell-based
Protocol: as §1, §2, §3, §4

MOLT-4 = test: NCI DTP screen (SRB), Leukemia; type: cell-based; details: Homo sapiens
Protocol: as §1, §2, §3, §4

K-562 = test: NCI DTP screen (SRB), Leukemia; type: cell-based; details: Homo sapiens
Protocol: as §1, §2, §3, §4

HCT-116 = test: NCI DTP screen (SRB), Colon Cancer; type: cell-based; details: Homo sapiens
Protocol: as §1, §2, §3, §4

KM12 = test: NCI DTP screen (SRB), Colon Cancer; type: cell-based; details: Homo sapiens
Protocol: as §1, §2, §3, §4

COLO 205 = test: NCI DTP screen (SRB), Colon Cancer; type: cell-based; details: Homo sapiens
Protocol: as §1, §2, §3, §4

BT-549 = test: NCI DTP screen (SRB), Breast Cancer; type: cell-based; details: Homo sapiens
Protocol: After 24 h, two plates of each cell line are fixed in situ with TCA, to represent a measurement of the cell population for each cell line at the time of drug addition (Tz). Experimental drugs are solubilized in dimethyl sulfoxide at 400-fold the desired final maximum test concentration and stored frozen prior to use. […]
Following drug addition, the plates are incubated for an additional 48 h at 37° C., 5% CO2, 95% air, and 100% relative humidity. […] Bound stain is subsequently solubilized with 10 mM trizma base, and the absorbance is read on an automated plate reader at a wavelength of 515 nm. […] Using the seven absorbance measurements [time zero, (Tz), control growth, (C), and test growth in the presence of drug at the five concentration levels (Ti)], the percentage growth is calculated at each of the drug concentrations levels. Percentage growth inhibition is calculated as: [(Ti−Tz)/(C−Tz)]×100 for concentrations for which Ti>/=Tz [(Ti−Tz)/Tz]×100 for concentrations for which Ti<Tz […]

SK-MEL-28 = test: NCI DTP screen (SRB), Melanoma; type: cell-based; details: Homo sapiens
Protocol: as §1, §2, §3, §4

SK-MEL-5 = test: NCI DTP screen (SRB), Melanoma; type: cell-based; details: Homo sapiens
Protocol: as §1, §2, §3, §4

LOX IMVI = test: NCI DTP screen (SRB), Melanoma; type: cell-based; details: Homo sapiens, LOX IMVI
Protocol: as §1, §2, §3, §4

M14 = test: NCI DTP screen (SRB), Melanoma; type: cell-based; details: Homo sapiens
Protocol: as §1, §2, §3, §4

immunoprecipitated Akt = test: Direct inhibition of immunoprecipitated Akt kinase activity; type: biochemical, human
MALNE-3M = test: NCI DTP screen (SRB), Melanoma; type: cell-based
PC-3 cells = test: Cell viability analysis (MTT) in PC-3 cells; type: cell-based, human; details: Homo sapiens; inducing apoptotic death in PC-3 cells / PC-3 cell viability; read-out: IC50 PC-3
Method in brief: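 Viability of PC-3 (p53−/−) prostate cancer cells measured by MTT in six replicates after 24 h growth in 10% FBS medium. Compounds (DMSO ≦0.1% final) applied in 1% serum RPMI 1640 for varying times; 0.5 mg/ml MTT for 2 h at 37° C., formazan dissolved in DMSO, absorbance read at 570 nm.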

[1] = MALNE-3M, Log10 Concentration −5.0

## NCC(=O)Nc1ccc(-n2nc(C(F)(F)F)cc2-c2ccc3c(ccc4ccccc43)c2)cc1 [Compound 70, 2-Amino-N-{4-[5-(2-phenanthrenyl)-3-(trifluoromethyl)-1H-pyrazol-1-yl]-phenyl}-acetamide]
RPMI-8226
  GI50: 537 nM
SR; Homo sapiens
  GI50: 711 nM
SR; Homo sapiens, read-out: LC50
  CC50: > 100000 nM
SR; Log10 Concentration −8.0
  Mean Optical Densities: 0.816
MOLT-4; MOLT-4
  GI50: 636 nM
MOLT-4; MOLT-4, read-out: LC50
  CC50: > 100000 nM
K-562; K562, read-out: LC50
  CC50: > 100000 nM
K-562; K562, K-562
  GI50: 257 nM
HCT-116; HCT-116
  GI50: 1270 nM
HCT-116; HCT-116, read-out: LC50
  CC50: > 100000 nM
KM12; KM12
  GI50: 1070 nM
KM12; KM12, read-out: LC50
  CC50: 6620 nM
COLO 205
  GI50: 1190 nM
BT-549; BT-549
  GI50: 1250 nM
BT-549; BT-549, read-out: LC50
  CC50: 6980 nM
SK-MEL-28; SK-MEL-28
  GI50: 1220 nM
SK-MEL-28; SK-MEL-28, read-out: LC50
  CC50: 5690 nM
SK-MEL-5
  GI50: 1360 nM
LOX IMVI
  GI50: 836 nM
M14; M14
  GI50: 2100 nM
M14; M14, read-out: LC50
  CC50: > 100000 nM
Immunoprecipitated Akt
  direct inhibitory effect on immunoprecipitated Akt kinase activity: no appreciable direct inhibition
MALNE-3M; Homo sapiens, read-out: LC50
  CC50: 7730 nM
MALNE-3M; [1]
  Mean Optical Densities: 0.218
  Percent Growth: −67%
MALNE-3M; MALNE-3M, Log10 Concentration −6.0
  Percent Growth: 87%
PC-3 cells
  IC50: 5000 nM
